The values that follow come from patent US5773236A, “Assay for glutathiane transferase using polyhaloaryl-substituted reporter molecules” (Molecule Probes, Inc., priority 1997, dated 1998).

Structures are written as SMILES.

For assay [1], the system named is CRE BAG 2 cells. The assay can be described thus: Peptidase substrates in live cells, fluorescence microscopy (Example 59). The settings on record: 1 μM, 0.5 μM or 0.1 μM, 37° C., 30 minutes. In kind it is cell-based. On the procedure: CRE BAG 2 cells obtained from American Type Culture Collection Co., Rockville, Md. are used. They are grown in a humidified atmosphere of 5% CO2 in D-MEM supplemented with 10% calf serum, 50 μg/mL gentamycin, 300 μg/mL L-glutamine and 10 mM HEPES, pH 7.4. 1 mM stock solutions of Compound 13-Leu (Example 13) and Compound 13-Arg substrate are prepared in DMSO. CRE BAG 2 cells are trypsinized, washed with phosphate-buffered saline, pH 7.2 and resuspended in 1 mL of the same buffer. 1 μL, 0.5 μL or 0.1 μL of the stock reagents is added to 1 mL of the cell suspension to obtain a final concentration of 1 μM, 0.5 μM or 0.1 μM. Incubation is carried out at 37° C. for 30 minutes. Cells are centrifuged to form a pellet, the supernatant is discarded and the cells are washed with PBS, pH 7.2 and suspended in the same buffer. Cells are mounted on slides and observed by fluorescence microscopy using filters optimized for fluorescein.

Another assay relates to P3×63AG8 cells. Description: Peptidase substrate in live cells, flow cytometry (Example 58). In kind it is cell-based. The settings on record: 1 μM, 37° C., 30 minutes. On the procedure: P3×63AG8 cells obtained from American Type Culture Collection Co., Rockville, Md. are used. They are grown in a humidified atmosphere of 5% CO2 in Dulbecco's modified Eagle's medium (D-MEM) supplemented with 10% calf serum, 50 μg/mL gentamycin, 300 μg/mL L-glutamine and 10 mM HEPES, pH 7.4. Compound 13-Arg (Prepared as in Examples 12 and 13) is dissolved at 1 mM in DMSO. The P3×63AG8 cells are trypsinized, washed with phosphate-buffered saline (PBS), pH 7.2 and resuspended in 1 mL of the same buffer. 1 μL of the stock reagent is added to 1 mL of the cell suspension to obtain a final concentration of 1 μM. Incubation is carried out at 37° C. for 30 minutes. Cells are centrifuged to form a pellet, the supernatant is discarded, the cells are washed twice with PBS, pH 7.2 and resuspended in 300 μL of the same buffer. Cells are analyzed by flow cytometry using the Becton-Dickinson FACS Vantage flow cytometer.
On the technique in general: A flow cytometer gives signals particle by particle.

The test system of a further assay is NIH-3T3 cells. The assay can be described thus: Marker gene expression by flow cytometry, NIH-3T3 (Example 62). It is filed as cell-based. The settings on record: 0.2 mM dye, 37° C., 30 minutes. On the procedure:
(§1) NIH-3T3 and CRE BAG2 cells are maintained as in Example 61. A 10 mM stock solution of (((3 -(2-pentafluorobenzoyl)amino)ethyl)amino)carbonyl)-umbelliferyl β-D-galactopyranoside (Compound 37; Example 37) is prepared in DMF. A 10 mM stock solution of 4-chloromethylcoumarin β-D-galactopyranoside (CMCG; Molecular Probes #D-2921) is prepared in a 1:1 mixture of DMSO and water. NIH-3T3 and CRE BAG2 cells are trypsinized, washed with phosphate buffered saline (PBS), pH 7.2 and resuspended in D-MEM with 10% BCS. To separate 1 mL cell suspensions are added the dye stock solutions to obtain final concentrations of 0.2 mM dye. Incubation is carried out at 37° C. for 30 minutes. Cells are centrifuged to form a pellet, the supernatant is discarded and the cells are washed twice with PBS, pH 7.2 and suspended in the same buffer. Cells are analyzed by flow cytometry using a Becton-Dickinson FACS Vantage flow cytometer. […] However, CRE BAG 2 cells stained with the Compound 37 show fluorescence that is greater than 25-fold that shown by autofluorescent control cells. For the CRE BAG 2 cells stained with CMCG, the fluorescence intensity is only 8-fold greater than that of the autofluorescent control cells.

In assay [2] the test system is CRE BAG 2 cells. The assay can be described thus: Marker gene expression by flow cytometry, CRE BAG 2 (Example 62). It is filed as cell-based. The settings on record: 0.2 mM dye, 37° C., 30 minutes. On the procedure:
as §1

Assay [3] concerns glutathione transferase (endogenous GST in BPAE cell lysates). Description: Determination of GST activity in cell extracts (Example 56). It is filed as biochemical, Bovine. On the procedure: (§2) Cultures of BPAE cells are trypsinized, pelleted, washed once in PBS and resuspended in 200 μL of distilled water in numbers from 200 to 1,000,000. The cells are lysed by repeated freezing and thawing and spun for 10 min. in a microfuge to eliminate the insoluble particles from the lysate, which contains both GSH and GST.
The assay for the amount of GST activity present in cell lysates (endogenous GST) is performed using the same system as above with the exception that 5 mM GSH is added to the reaction mixture to ensure that there is a sufficient excess of GSH to saturate the enzyme. The reaction is incubated for one hour at 37° C. and 2 μL of each sample are spotted on TLC plates and developed as described in Example 48. Product formation is quantitated using a plate scanner as for GSH determination (as in Example 53). […] Similarly, this assay system can be used to quantitate GST-fusion proteins.

Assay [4] deals with GST. Description: Quantitation of GST in enzymatic reactions, TLC (Example 55). It is filed as biochemical. The settings on record: excess GSH, 2 μL spotted on TLC. How it is done: (§3) A set of reactions as described in Example 48 are performed using limiting concentrations of GSH (0.1 μM-1 mM), to measure the range of sensitivity of the assay for quantitating GSH. Alternatively, the reaction is performed using excess GSH and limiting GST (0.1 μg/mL-20 μg/mL) to determine the suitability of the method to detect and quantitate glutathione transferase activity of isolated enzymes or of GST-fusion proteins.
(§4) In one hour reactions at 37° C., using 0.5 mM Compound 1 (Example 1) as the substrate, 10 μg/mL GST and limiting GSH, the minimum amount of fluorescent Compound 1-GSH adduct (Compound 45) detectable by simple illumination with a long wavelength UV hand lamp corresponds to ~2-4 picomoles of GSH. When using excess GSH and variable amounts of GST, it is possible to detect by visible inspection the reaction product in solutions containing 5 μg/mL of enzyme spotted on TLC in 2 μL amounts: this spot corresponds to ~10 ng of GST. […] Quantitative measurement of the amount of product formed can be performed by either HPLC (Example 52), using a plate scanner (Example 53) or by extraction of the scraped silica gel spots into methanol or pH 8.0 buffer and measurement of the fluorescence against that of a series of dilutions of the authentic adduct (Example 45) in the same buffer using a fluorometer or microplate reader.

A short description of assay [5]: Quantitation of GSH in enzymatic reactions, TLC (Example 55). In kind it is biochemical. The settings on record: 0.5 mM Compound 1, 10 μg/mL GST, limiting GSH, 1 hour, 37° C., UV hand lamp. How it is done: as §3, §4
Assay [6] concerns GST. The assay can be described thus: HPLC analysis of the in vitro reaction mixture (Example 52). It is filed as biochemical. The settings on record: with GST, absorbance at 500 nm. On the procedure: To determine whether a compound is a selective substrate for glutathione transferase, a 2 mM ethanol stock solution of a polyhalogenated derivative (for example the series of butylbenzamides described in Example 49), reduced glutathione (phosphate buffer stock solution, 5 mM) and glutathione S-transferase (phosphate buffer stock solution, 1 unit/mL) are incubated at 25° C. in the mixture of 98% 0.1M K2 HPO4 -KH2 PO4 buffer (pH7.5) that contains 1 mM EDTA and 2% ethanol for 2 h. The reaction is then stopped by adding 10% H2 O2.
Reaction mixtures with and without GST using Compound 1 as the substrate, are prepared as described in Example 48. The solutions are mixed overnight with three volumes of ethyl acetate followed by centrifugation at 15,000×g for 30 min to separate the organic and aqueous layers. HPLC analysis using a Rainin HPLC equipped with a C18, 5 μm, 100 Å, 4.6×250 mm MICROSORB-MV reverse phase column. Products are separated in 30 min with a gradient of 5% to 95% solvent B in Solvent A at a flow rate of 1 mL/min, where solvent A is 0.1M triethylammonium acetate, pH 7.0, and solvent B is acetonitrile (see FIG. 1). Products are detected by reading the absorbance at 500 nm. Peaks are identified and, if desired, quantitated by comparing retention times with authentic samples of the glutathione adduct of Compound 45 (Example 45).

In the next assay the test system is β-galactosidase. Description: Reactivity with thiol groups of proteins (Example 51). It is filed as biochemical. How it is done: To test the specificity of the Compound 1 reaction with GSH versus thiol-containing proteins, β-galactosidase (a protein that has several free thiols) is dissolved at 5 mg/mL in deoxygenated 0.1M phosphate, 0.1M NaCl, pH 7.5, and reacted under anaerobic conditions with 5-(pentafluorobenzoylamino)fluorescein diacetate (Compound 4, Example 3) or Compound 1 dissolved at 10 mg/mL in DMSO at a molar ratio of the reagent to protein of 15. This assay is performed both in the presence and absence of 30 mM N-ethyl maleimide (NEM) as an effective thiol-blocking reagent. The reactions are incubated at room temperature for 1 hour, stopped by the addition of hydroxylamine, pH 9 to a final concentration of 0.15M, and incubated for 2 more hours to hydrolyze the acetate groups. […] Consequently, no reaction of either Compound 4 or Compound 1 with β-galactosidase is detected under the described conditions.

Another assay deals with GSH in BPAE cell lysate. The assay can be described thus: Determination of GSH in cell extracts (Example 56). It is filed as biochemical, Bovine. The settings on record: 0.2 mM Compound 1, 5 μg GST, 2 hours, 37° C.; FIG. 3. How it is done: as §2
To 150 μL of the lysate are added 5.5 μL of 1.8M MOPS pH 7.5, Compound 1 at the final concentration of 0.2 mM, 5 μg GST and distilled water to obtain the final volume of 200 μL. The reaction mixtures are incubated for 2 hours at 37° C. and analyzed by TLC by spotting 2 μL of each sample and developing as described in Example 48. The spots corresponding to the product formed by the different amounts of cells, because of their endogenous GSH is quantitated on a plate scanner as described in Example 53. […] Quantitation of GSH can also be performed by separating the product from the reaction mixture by HPLC as in Example 52.

In assay [7] the test system is glutathione transferase (GST). The assay can be described thus: Reactivity with glutathione catalyzed by glutathione transferase, TLC (Example 50). In kind it is biochemical. How it is done:
The suitability of Compound 1 (Example 1) and 5-(pentachlorobenzoylamino)fluorescein (Compound 48) as substrates for glutathione transferase (GST) in the presence of excess glutathione (GSH) is tested in vitro as follows: 5 mM GSH, 0.5 mM substrate (Compound 1 or Compound 48) and 20 micrograms GST (Sigma #G-6511, 70 units/mg) are combined in 0.1M phosphate buffer, pH 8.0, for 1 hour at 37° C. The reaction is terminated by spotting approximately 3 μL on silica gel TLC plates. The plate is developed using 1-butanol: methanol: water (3:1:1). […] Analysis of the reaction mixture by HPLC as in Example 52 confirms that the reaction product of Compound 1 with GSH is identical to the authentic Compound 1-GSH adduct as prepared in Example 45 (Compound 45).

Turning to `N=C(N)NCCC[C@H](N)C(=O)Nc1ccc2c(c1)Oc1cc(NC(=O)c3c(F)c(F)c(F)c(F)c3F)ccc1C21OC(=O)c2ccccc21` (stereo partly drawn) [Compound 13-Arg], the “staining of cells, fluorescence microscopy” value with CRE BAG 2 cells [1] was “punctate green fluorescence associated with organelles”. Further, the “cell fluorescence (FL 1 channel)” value in the assay on P3×63AG8 cells was “fluorescence levels greater than the cell's autofluorescence”.

Regarding `O=C(NCCNC(=O)c1cc2ccc(O[C@@H]3O[C@H](CO)[C@H](O)[C@H](O)[C@H]3O)cc2oc1=O)c1c(F)c(F)c(F)c(F)c1F` [Compound 37, ((((3-(2-pentafluorobenzoyl)amino)ethyl)amino)carbonyl)umbelliferyl β-D-galactopyranoside], in the assay with NIH-3T3 cells, the “fluorescence versus autofluorescent cells” value is given as “do not show fluorescence greater than that observed for autofluorescent cells”. Moreover, in the assay on CRE BAG 2 cells [2], the “fluorescence relative to autofluorescent control cells” value was “greater than 25 fold”.

Regarding `O=C1OC2(c3ccc(O)cc3Oc3cc(O)ccc32)c2ccc(NC(=O)c3c(F)c(F)c(F)c(F)c3F)cc21` [Compound 1, 5-(pentafluorobenzoylamino)fluorescein], in assay [3] (5 mM GSH, one hour, 37° C., FIG. 4), the “usefulness for determination of GST activity in cell lysates” value is reported as “useful for the determination of the activity of GST activity in cells lysates”. Further, in assay [3] (high concentration of both substrate and GSH), the “adduct formation in absence of enzyme” value was “a trace amount of adduct forms”. Also, the “amount of GST corresponding to detectable spot” value in the assay on GST [4] is listed as ~ 10 ng. In the assay on GST [4] (variable GST, 1 hour, 37° C.), the “enzyme (GST) concentration detectable by visible inspection” value stood at 5 µg/mL. For the same compound, in [5], the “minimum amount of adduct detectable, corresponding to GSH” value is listed as 2-4 picomoles. Further, the “products in aqueous layer by HPLC” value with GST [6] is “two major peaks with elution times corresponding to the Compound 45 and to the unreacted Compound 1”. Further, in the assay with β-galactosidase (molar ratio of reagent to protein 15), the “fluorescent proteins formed, gel electrophoresis” value is “no fluorescent proteins are formed”. Moreover, the “reaction with β-galactosidase, TLC” value with β-galactosidase (molar ratio of reagent to protein 15, pH 7.5, 1 hour, with and without 30 mM NEM) was “no reaction”. Further, the “plot of fluorescence intensity of Compound 1-GSH adduct versus number of cells (GSH)” value in the assay on GSH in BPAE cell lysate is recorded as “good linearity”. The “adduct formation with glutathione in presence of GST” value in assay [7] (5 mM GSH, 0.5 mM substrate, 20 micrograms GST, pH 8.0, 1 hour, 37° C.) was “forms a fluorescent adduct with glutathione”. Moreover, in assay [7] (GST omitted), the “reaction in control without GST” value is “very low or no reaction”.
